# Data: patent US20140243351A1, “DRUG FOR THE TREATMENT OF ALLERGIC RHINITIS COMPRISING PGD2 ANTAGONIST AND HISTAMINE ANTAGONIST” (Shionogi & Co., Ltd., priority 2011, published 2014)
# Like-named read-outs stand apart in the source and are kept apart here. Marks after values point to notes of the source that are not given here.
# Columns and labels:
# [1] = system: guinea pig rhinitis model induced with PGD2 and histamine; test: Evaluation Test 3, guinea pig rhinitis model induced with PGD2 and histamine, nasal airway resistance; assay type: in vivo; settings: oral, each agent at 10 mg/kg; about 10 minutes after PGD2 + histamine challenge
# Description: The pharmacological efficacy evaluation was made using 9 to 12 week-old male Harley guinea pigs in the following manner. Specifically, the guinea pigs were divided into the following groups: Group 1: Control Group (a group administered with a medium alone to a guinea pig); […] [table]
# [2] = system: patients with seasonal allergic rhinitis; test: Evaluation test on pharmacological efficacy on patients with seasonal allergic rhinitis (daytime nasal symptom scores)
# Procedure: Each of the groups was asked to take each preparation in accordance with the following medication schedule. Thereafter, each of the patients was daily evaluated on daytime nasal symptoms, e.g. sneezing attacks, nasal discharge, nasal congestion, and nasal itching, in accordance with the following evaluation criteria. The results were analyzed. The lower the nasal symptom scores, more alleviated the nasal symptoms.
# The medication was scheduled for a total of about 6 to 18 weeks, including a screening period of from 0 days to 12 weeks, a placebo introducing period of from 4 to 7 days, an ingestion period for each preparation of 4 weeks, and a post-observation period of 1 week.
# Here, the evaluation criteria for sneezing, nasal discharge, and nasal congestion were conducted in 5-ranks from scores 0 to 4, and the evaluation criterion for nasal itching was conducted in 4-ranks of scores 0 to 3.
# As to the nasal symptoms evaluated by each patient, average scores/day at time points 1, 2, 3, and 4 weeks after the administration, and the week just before the administration (for example, at a time point of 2 weeks after the administration refers to a one-week period from one week after the administration to the second week) were calculated, and changes since the start of the test were calculated and used in analysis. Here, in the between-group comparison distribution of the background factors, Fisher's exact test was used for nominal scale data, and Kruskal-Wallis test was used for continuous data or ordinal scale data. In both tests, the significance levels were set at 0.15 on both sides. In the analyses of nasal symptom items, the between-group comparison according to covariance analysis of an average change after two weeks from the administration, the between-group comparison according to covariance analysis of a change on a weekly basis, the between-group comparison of a change on a weekly basis using a linear model, and the between-group comparison according to chi-square test of improvement rate on a weekly basis were conducted. In all the comparisons, the significance level was set at 0.05 on both sides. In addition, as to the changes of nasal symptoms on a weekly basis, the between-group comparison according to covariance analysis for changes on a weekly basis using a linear model was conducted. Further, the between-group comparison according to chi-square test of improvement rate of each of the daytime nasal symptoms on a weekly basis was conducted. In the covariance analysis for a change on a weekly basis, in cases where data each week were not measured, the data were supplemented according to Last Observation Carried Forward (LOCF) method.
# [3] = system: guinea pig rhinitis model; test: Evaluation Test 1, guinea pig rhinitis model (OVA), nasal airway resistance, Formula (I) + fexofenadine hydrochloride; assay type: in vivo; settings: single, 20 minutes after OVA challenge
# Procedure: Guinea pig rhinitis models were generated by causing rhinitis-inflammation in 5 to 6 week-old male Harley guinea pigs in the following manner. Concretely, on day 0, the guinea pigs were intraperitoneally administered with cyclophosphamide diluted with physiological saline at 30 mg/kg. Two days later (on day 2), a mixed solution of aluminum hydroxide gel (10 mg), ovalbumin (OVA) (1 mg) and physiological saline was intraperitoneally administered to establish active sensitization. Thereafter, on day 9, a 1% OVA solution dissolved in physiological saline was intranasally challenged by 20 μL each to both the nostrils. Further, on day 16, a 2% OVA solution dissolved in physiological saline was intranasally challenged by 10 μL each to both the nostrils, thereby generating guinea pig rhinitis models that caused rhinitis-inflammation. Here, a control group that serves as a control was intranasally challenged by physiological saline in place of intranasally challenging by the OVA solution.
# Specifically, prepared were the following: […]
# Next, on day 23, a test substance listed in Table 7 was orally administered using a 0.5% methylcellulose (MC) solution as a medium, and one hour thereafter a 2% OVA solution dissolved in physiological saline was intranasally challenged by 10 μL each to both the nostrils (Group 1 was intranasally challenged by physiological saline in place of intranasal challenge by the OVA solution), and the nasal airway resistance was evaluated and analyzed. […] Here, nasal airway resistance (nRaw) is an average of specific airway resistance (sRaw) of 200 times or more breathing, and the analyzed values used in the comparisons of pharmacological efficacy are expressed as a percent change based on the nasal airway resistance measured before the intranasal challenge (100%) (IAR: immediately airway response). In addition, the between-group comparison was carried out according to one-sided t test, and the suppression percentage to Group 2 (Vehicle Group) was calculated by the following formula: […]
# [4] = system: seasonal allergic rhinitis patients; test: Clinical test (Ph 2, protocol 077) on seasonal allergic rhinitis, Non-Patent Publication 1; assay type: in vivo, human; settings: beclomethasone versus loratadine, change per symptom from placebo
# Description: For example, Journal of Asthma, 46, 878-883, 2009 (Non-Patent Publication 1) describes clinical test results (Ph 2, protocol 077) on seasonal allergic rhinitis for a patient group administered with montelukast as an LT receptor antagonist, a patient group administered with loratadine as a histamine H1 receptor antagonist, and a patient group administered with beclomethasone as an intranasal steroid (see Table 3 in the publication). Here, the nasal symptoms, i.e. sneezing, nasal discharge, nasal congestion, and nasal itching, after two weeks since the start of the oral administration are scored to be evaluated.
# Furthermore, Table 3 of Non-Patent Publication 1 describes clinical test results on seasonal allergic rhinitis for an intranasal steroid agent beclomethasone and a histamine H1 receptor antagonist loratadine. According to the publication, it can be seen that a change in scores of nasal symptoms, i.e. sneezing, nasal discharge, nasal congestion, and nasal itching, after two weeks since the start of the oral administration, per symptom from the placebo group is such that the change in a loratadine group is 0.31, i.e. a difference between 0.53 and 0.22, and that the change in a beclomethasone group is 0.48, i.e. a difference between 0.70 and 0.22. In other words, it can be seen that the intranasal steroid agent was 1.55 times effective of the histamine H1 receptor antagonist. […]
# [5] = system: seasonal allergic rhinitis patients; settings: after two weeks, cited from earlier work; for change in nasal symptom scores per symptom from the placebo group: sneezing, nasal discharge, nasal congestion, nasal itching
# [6] = system: seasonal allergic rhinitis patients; settings: after two weeks; cited from earlier work
# [7] = system: seasonal allergic rhinitis patients; settings: after two weeks; montelukast 10 mg, loratadine 10 mg, combination 10 mg each; cited from earlier work
# [8] = after two weeks from administration
structure (smiles),measurement,setting,value
"Cl.Cl.O=C(O)COCCN1CCN(C(c2ccccc2)c2ccc(Cl)cc2)CC1 (racemic) [Cetirizine Hydrochloride, 2-(2-{4-[(RS)-(4-chlorophenyl)phenylmethyl]piperazin-1-yl}ethoxy)acetic acid dihydrochloride]",suppression percentage of nasal airway resistance increase,[1],20%
same,"Change in Nasal Congestion Scores, Difference with Placebo Group",[2]; [8],−0.13
same,"Change in Nasal Discharge Scores, Difference with Placebo Group",[2]; [8],−0.31**
same,"Change in Nasal Itching Scores, Difference with Placebo Group",[2]; [8],−0.28**
same,"Change in Sneezing Scores, Difference with Placebo Group",[2]; [8],−0.34***
same,"Change in Total of Three Nasal Symptom Scores, Difference with Placebo Group","[2]; after two weeks from administration, dihydrochloride",−0.73**
same,"Change in Total of Three Nasal Symptom Scores, Difference with Placebo Group","[2]; after two weeks from administration, listed as cetirizine, dihydrochloride",0.73
same,"change per symptom (total of three nasal symptom scores, from the placebo group)","[2]; after two weeks, worked out from Table 2",0.24
"CC(C)(C(=O)O)c1ccc(C(O)CCCN2CCC(C(O)(c3ccccc3)c3ccccc3)CC2)cc1.Cl (racemic) [fexofenadine hydrochloride, (±)-2-{4-[1-hydroxy-4-[4-(hydroxydiphenylmethyl)piperidino]butyl]phenyl}-2-methylpropanoic acid monohydrochloride]",suppression percentage of nasal airway resistance increase,"[3]; Group 5, fexofenadine hydrochloride 20 mg/kg oral",15%
"CC(C)Oc1ccc(S(=O)(=O)N2CCN(c3ccc(-c4ncco4)c(OCC(=O)O)c3)CC2)cc1 [Formula (I), [2-(oxazol-2-yl)-5-(4-{4-[(propan-2-yl)oxy]phenylsulfonyl}piperazin-1-yl)phenoxy]acetic acid]",suppression percentage of nasal airway resistance increase,"[3]; Group 3, Formula (I) 1 mg/kg oral",21%
same,suppression percentage of nasal airway resistance increase,"[3]; Group 4, Formula (I) 10 mg/kg oral",47%
same,suppression percentage of nasal airway resistance increase,[1],32%
same,"Change in Nasal Congestion Scores, Difference with Cetirizine Hydrochloride Group",[2]; [8],−0.03
same,"Change in Nasal Congestion Scores, Difference with Placebo Group",[2]; [8],−0.16*
same,"Change in Nasal Discharge Scores, Difference with Cetirizine Hydrochloride Group",[2]; [8],0.13
same,"Change in Nasal Discharge Scores, Difference with Placebo Group",[2]; [8],−0.19**
same,"Change in Nasal Itching Scores, Difference with Cetirizine Hydrochloride Group",[2]; [8],0.21**
same,"Change in Nasal Itching Scores, Difference with Placebo Group",[2]; [8],−0.06
same,"Change in Sneezing Scores, Difference with Cetirizine Hydrochloride Group",[2]; [8],0.23**
same,"Change in Sneezing Scores, Difference with Placebo Group",[2]; [8],−0.11
same,"Change in Total of Three Nasal Symptom Scores, Difference with Cetirizine Hydrochloride Group",[2]; [8],0.28
same,"Change in Total of Three Nasal Symptom Scores, Difference with Placebo Group",[2]; [8],−0.45*
C[C@H]1C[C@H]2[C@@H]3CCC4=CC(=O)C=C[C@]4(C)[C@@]3(Cl)[C@@H](O)C[C@]2(C)[C@@]1(O)C(=O)CO [beclomethasone],effect of intranasal steroid agent relative to histamine H1 receptor antagonist,[4],1.55 times
same,change in nasal symptom scores per symptom since the start of the administration,[5],0.70
same,change in nasal symptom scores per symptom from the placebo group,[5],0.48
"CCOC(=O)N1CCC(=C2c3ccc(Cl)cc3CCc3cccnc32)CC1 [loratadine, ethyl 4-(8-chloro-5,6-dihydro-11H-benzo[5,6]cyclohepta[1,2-b]pyridin-11-ylidene)-1-piperidinecarboxylate]",change in nasal symptom scores per symptom since the start of the administration,[5],0.53
same,change in nasal symptom scores per symptom from the placebo group,[5],0.31
same,change per symptom of the nasal symptom scores since the start of the administration,[6],0.40
same,"change per symptom of the nasal symptom scores, based on the placebo group",[6],0.09
same,change per symptom of the nasal symptom scores since the start of the administration,[7],0.34
same,"change per symptom of the nasal symptom scores, based on the placebo group",[7],0.09
